Earlier results in US11565004B2, “In vivo imaging of matrix metalloproteinases in lung disease” (The Trustees of Columbia University in the City of New York, priority 2016, dated 2023).

Tested on: MMPs-1, -2, -3, -7, -9, -12, and -13

COc1ccc(S(=O)(=O)N(Cc2cccnc2)[C@@H](C(=O)NO)C(C)C)cc1 [CGS27023A]
affinities against MMPs: high affinities
